Source: patent publication USRE48335E1, “Polymyxin derivatives as antimicrobial compounds” (priority 2014, dated 2020)
≈ marks a conversion by molar mass, not a printed value. Where two headings read alike, the source gives them in different places. Positions of bridges follow the written chain, without caps; N, C: chain ends. Non-standard residues stand in square brackets, D forms with d. Residues, ends and D or L forms follow the SMILES beside them. *: point of attachment. Phenylacetyl(4-CF3) = O=C(Cc1ccc(C(F)(F)F)cc1)*; Benzoyl(3-Ph) = O=C(c1cccc(-c2ccccc2)c1)*; X16 = O=C(c1cc(F)c(F)c(F)c1)*; Octanoyl = CCCCCCCC(=O)*; Dab = NCC[C@H](N)C(=O)O; Abu = CC[C@H](N)C(=O)O; Dap = NC[C@H](N)C(=O)O

Experiments:
[1] = tested on: Acinetobacter baumannii
How it was run: (§1)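 MICs were determined for the lipopeptides, tested as trifluoroacetic acid salts, by broth microdilution in cation-adjusted Mueller-Hinton broth following CLSI standards (M100-S18). Polymyxin B sulphate served as the control.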

[2] = tested on: Enterobacter cloacae
How it was run: as §1

[3] = tested on: Klebsiella pneumoniae
How it was run: as §1

[4] = tested on: Pseudomonas aeruginosa
How it was run: as §1

[5] = tested on: P. aeruginosa ATCC 27853; assay: In vivo efficacy in mouse blood infection model (neutropenic Swiss mice); details: compound, free base 4 mg/kg intravenously 2 h after inoculation, blood at 4 h
How it was run: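 Neutropenic Swiss mice (cyclophosphamide 150 mg/kg day −4, 100 mg/kg day −1, i.p.) infected i.v. with early log-phase bacteria; 4 mg/kg free base i.v. given 2 h post-inoculation. Blood CFU by cardiac puncture 4 h post-dose; Δlog10 CFU/mL treated versus saline controls.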

With `CC[C@@H]1NC(=O)[C@@H](CC(C)C)NC(=O)[C@H](CCN)NC(=O)[C@@H](NC(=O)[C@H](CN)NC(=O)[C@@H](NC(=O)[C@H](CCN)NC(=O)Cc2ccc(C(F)(F)F)cc2)[C@@H](C)O)CCNC(=O)[C@H]([C@@H](C)O)NC(=O)[C@H](CCN)NC(=O)[C@H](CCN)NC1=O` [Compound 127] ({Phenylacetyl(4-CF3)}-[Dab]T[Dap][Dab][Dab][dL][Abu][Dab][Dab]T; lactam 4-C) the MIC [1] was 4 mg/L (≈ 3.41 µM), the “Minimum inhibitory concentration, Ab A ATCC 17978” value [1] was 1 mg/L (≈ 0.852 µM) and the “Minimum inhibitory concentration, Ab ATCC 19606” value [1] was 4 mg/L (≈ 3.41 µM). For the same molecule, the “Minimum inhibitory concentration, Ab FADDI-AB034” value [1] was 0.5 mg/L (≈ 0.426 µM), the “Minimum inhibitory concentration, Ec FADDI-EC001” value [2] was less than 0.125 mg/L and the “Minimum inhibitory concentration, Ec FADDI-EC003” value [2] was 0.25 mg/L (≈ 0.213 µM). For the same molecule, the “Minimum inhibitory concentration, Ec FADDI-EC006” value [2] was 0.5 mg/L (≈ 0.426 µM), the MIC [3] was 0.5 mg/L (≈ 0.426 µM) and the MIC [4] was 0.5 mg/L (≈ 0.426 µM). The “Minimum inhibitory concentration, Pa ATCC 27853” value [4] was 0.5 mg/L (≈ 0.426 µM), the “Minimum inhibitory concentration, Pa FADDI-PA022” value [4] was 0.5 mg/L (≈ 0.426 µM) and the “Minimum inhibitory concentration, Pa FADDI-PA025” value [4] was 16 mg/L (≈ 13.6 µM). The “Δ log (Treated-Control at 4 h)” value [5] was −3.51 log10 CFU/mL.

`CCCCCCCC(=O)N[C@@H](CCN)C(=O)N[C@H](C(=O)N[C@@H](CN)C(=O)N[C@H]1CCNC(=O)[C@H]([C@@H](C)O)NC(=O)[C@H](CCN)NC(=O)[C@H](CCN)NC(=O)[C@H](CC)NC(=O)[C@@H](Cc2ccccc2)NC(=O)[C@H](CCN)NC1=O)[C@@H](C)O` [Compound 130] (Octanoyl-[Dab]T[Dap][Dab][Dab][dF][Abu][Dab][Dab]T; lactam 4-C) was tested, and the MIC [1] was 0.25 mg/L (≈ 0.218 µM), the “Minimum inhibitory concentration, Ab A ATCC 17978” value [1] was 0.25 mg/L (≈ 0.218 µM) and the “Minimum inhibitory concentration, Ab ATCC 19606” value [1] was 0.25 mg/L (≈ 0.218 µM). For the same molecule, the “Minimum inhibitory concentration, Ab FADDI-AB034” value [1] was 0.25 mg/L (≈ 0.218 µM), the “Minimum inhibitory concentration, Ec FADDI-EC001” value [2] was 0.25 mg/L (≈ 0.218 µM) and the “Minimum inhibitory concentration, Ec FADDI-EC003” value [2] was 0.25 mg/L (≈ 0.218 µM). For the same molecule, the “Minimum inhibitory concentration, Ec FADDI-EC006” value [2] was 1 mg/L (≈ 0.872 µM), the MIC [3] was 0.5 mg/L (≈ 0.436 µM) and the MIC [4] was 0.5 mg/L (≈ 0.436 µM). For the same molecule, the “Minimum inhibitory concentration, Pa ATCC 27853” value [4] was 0.5 mg/L (≈ 0.436 µM), the “Minimum inhibitory concentration, Pa FADDI-PA022” value [4] was 2 mg/L (≈ 1.74 µM) and the “Minimum inhibitory concentration, Pa FADDI-PA025” value [4] was 2 mg/L (≈ 1.74 µM). For the same molecule, the “Δ log (Treated-Control at 4 h)” value [5] was −3.66 log10 CFU/mL.

In the case of `CC[C@@H]1NC(=O)[C@@H](CC(C)C)NC(=O)[C@H](CCN)NC(=O)[C@@H](NC(=O)[C@H](CN)NC(=O)[C@@H](NC(=O)[C@H](CCN)NC(=O)c2cc(F)c(F)c(F)c2)[C@@H](C)O)CCNC(=O)[C@H]([C@@H](C)O)NC(=O)[C@H](CCN)NC(=O)[C@H](CCN)NC1=O` [Compound 133] (X16-[Dab]T[Dap][Dab][Dab][dL][Abu][Dab][Dab]T; lactam 4-C; N-terminus assumed), the MIC [1] is reported as 2 mg/L (≈ 1.75 µM), the “Minimum inhibitory concentration, Ab A ATCC 17978” value [1] is reported as 0.5 mg/L (≈ 0.437 µM) and the “Minimum inhibitory concentration, Ab ATCC 19606” value [1] is reported as 2 mg/L (≈ 1.75 µM). The “Minimum inhibitory concentration, Ab FADDI-AB034” value [1] was 0.25 mg/L (≈ 0.218 µM), the “Minimum inhibitory concentration, Ec FADDI-EC001” value [2] was 0.5 mg/L (≈ 0.437 µM) and the “Minimum inhibitory concentration, Ec FADDI-EC003” value [2] was 0.25 mg/L (≈ 0.218 µM). The “Minimum inhibitory concentration, Ec FADDI-EC006” value [2] was 0.25 mg/L (≈ 0.218 µM), the MIC [3] was 0.25 mg/L (≈ 0.218 µM) and the MIC [4] was 0.5 mg/L (≈ 0.437 µM). For the same molecule, the “Minimum inhibitory concentration, Pa ATCC 27853” value [4] was 0.5 mg/L (≈ 0.437 µM), the “Minimum inhibitory concentration, Pa FADDI-PA022” value [4] was 0.5 mg/L (≈ 0.437 µM) and the “Minimum inhibitory concentration, Pa FADDI-PA025” value [4] was 2 mg/L (≈ 1.75 µM). The “Δ log (Treated-Control at 4 h)” value [5] was −3.23 log10 CFU/mL.

In the case of `CC[C@@H]1NC(=O)[C@@H](CC(C)C)NC(=O)[C@H](CCN)NC(=O)[C@@H](NC(=O)[C@H](CN)NC(=O)[C@@H](NC(=O)[C@H](CCN)NC(=O)c2cccc(-c3ccccc3)c2)[C@@H](C)O)CCNC(=O)[C@H]([C@@H](C)O)NC(=O)[C@H](CCN)NC(=O)[C@H](CCN)NC1=O` [Compound 138] ({Benzoyl(3-Ph)}-[Dab]T[Dap][Dab][Dab][dL][Abu][Dab][Dab]T; lactam 4-C), the MIC ([1]; A. baumannii ATCC 19606) is reported as 1 mg/L (≈ 0.857 µM), the “Minimum inhibitory concentration (MIC), Ab ATCC 17978” value ([1]; Acinetobacter baumannii ATCC 17978, broth microdilution in CAMHB, TFA salt) is reported as 0.5 mg/L and the “Minimum inhibitory concentration (MIC), Ab ATCC 19606” value ([1]; Acinetobacter baumannii ATCC 19606, broth microdilution in CAMHB, TFA salt) is reported as 1 mg/L. The “Minimum inhibitory concentration (MIC), Ab FADDI-AB034” value ([1]; Acinetobacter baumannii FADDI-AB034, broth microdilution in CAMHB, TFA salt) was 0.5 mg/L, the “Minimum inhibitory concentration (MIC), Ec FADDI-EC001” value ([2]; Enterobacter cloacae FADDI-EC001, broth microdilution in CAMHB, TFA salt) was 0.5 mg/L and the “Minimum inhibitory concentration (MIC), Ec FADDI-EC003” value ([2]; Enterobacter cloacae FADDI-EC003, broth microdilution in CAMHB, TFA salt) was 1 mg/L. For the same molecule, the “Minimum inhibitory concentration (MIC), Ec FADDI-EC006” value ([2]; Enterobacter cloacae FADDI-EC006, broth microdilution in CAMHB, TFA salt) was 0.5 mg/L, the MIC ([3]; K. pneumoniae FADDI-KP032) was 0.5 mg/L (≈ 0.428 µM) and the MIC ([4]; P. aeruginosa ATCC 27853) was 1 mg/L (≈ 0.857 µM). For the same molecule, the “Minimum inhibitory concentration (MIC), Pa ATCC 27853” value ([4]; Pseudomonas aeruginosa ATCC 27853, broth microdilution in CAMHB, TFA salt) was 1 mg/L, the “Minimum inhibitory concentration (MIC), Pa FADDI-PA022” value ([4]; Pseudomonas aeruginosa FADDI-PA022, broth microdilution in CAMHB, TFA salt) was 2 mg/L and the “Minimum inhibitory concentration (MIC), Pa FADDI-PA025” value ([4]; Pseudomonas aeruginosa FADDI-PA025, broth microdilution in CAMHB, TFA salt) was 1 mg/L. For the same molecule, the “Δ log (Treated-Control at 4 h)” value [5] was −2.98 log10 CFU/mL.
